We go through one compound from patent US12383527B2, “Methods for treating triple negative breast cancer using salvianolic acid B” (HOWARD UNIVERSITY, priority 2018, dated 2025).

Structures are written as SMILES.

The test system of one series is MDA-MB-231 cells. Briefly: Colony formation assay. Type of series: cell-based, human. Particulars: colonies grown 10 days. As for the experimental part:
Colony formation assay. The inhibitory effect of Sal-B was further confirmed by colony formation assay. The colony formation assay was performed as described previously (Hao Y, et al., “Enforced expression of miR-101 inhibits prostate cancer cell growth by modulating the COX-2 pathway in vivo,” Cancer Prev Res (Phila). 2011; 4: 1073-1083). Briefly, MDA cells were seeded at a density of 300 cells per well in 6-well plates, cultured overnight, and then treated with Sal-B at different concentrations (1, 10, 20, 50, and 100 μM) for 24 hours. Following treatment, the old medium containing Sal-B was replaced with fresh drug-free media and the cells were allowed to grow for 10 days to permit colony formation from viable clonogenic cells. Colonies were stained with 0.1% trypan blue in 50% ethanol and were counted manually under microscopy with a grid printed on a transparent plastic sheet to keep track of colonies counted. The colonies containing more than 50 cells were considered to represent a viable clonogenic cell. The experiment was completed in triplicate for each treatment.

Another series relates to MDA tumor xenografts. In words: Human tumor xenografts in athymic nude mice, tumor weight. Type of series: in vivo. Conditions: Sal-B 80 mg/kg three times per week, intraperitoneal; day 37; mean±SD; untreated control 0.81±0.12 g. As for the experimental part:
(§1) Human tumor xenografts in athymic nude mice. […] The animal protocol was approved by the Howard University Animal Care and Use Committee. Four-week-old female athymic nude mice (Nu/Nu) were obtained from Harlan Sprague Dawley (Indianapolis, IN). All mice were provided the Harlan Teklad #2018 Global 18% protein rodent diet and water ad libitum. Mice were housed in temperature-controlled rooms (74±2° F.) with a 12-hour alternating light-dark cycle. MDA cells (3×10^6/50 μL/spot) were subcutaneously injected into the both sides of lower back of mice using a 27-gauge needle. On day 10 after cell implantation, the mice with tumors (˜5 mm in diameter) were randomly divided into Sal-B treated, doxorubicin treated, and untreated groups (five mice per group), and were administrated Sal-B (80 mg/kg, three times per week), doxorubicin (4 mg/kg, every four weeks) and 0.9% saline (50 μl, three times per week), respectively, by intraperitoneal injection for a total of 37 days. […] All mice were sacrificed on day 37.
For orientation: Xenograft models place foreign cells or tissue in a host animal.

Series [1] in a line: Body weight and side effects of treated mice. In kind it is in vivo. Particulars: applicant's previous studies. The protocol:
as §1

The subject of series [2] is proliferating cell nuclear antigen (PCNA). Briefly: Immunohistochemical staining of PCNA in MDA tumor xenografts. In kind it is in vivo, athymic nude mice. Particulars: Sal-B 80 mg/kg three times per week; versus untreated; P<0.05. The protocol:
(§2) Human tumor xenografts in athymic nude mice. […] The animal protocol was approved by the Howard University Animal Care and Use Committee. Four-week-old female athymic nude mice (Nu/Nu) were obtained from Harlan Sprague Dawley (Indianapolis, IN). All mice were provided the Harlan Teklad #2018 Global 18% protein rodent diet and water ad libitum. Mice were housed in temperature-controlled rooms (74±2° F.) with a 12-hour alternating light-dark cycle. MDA cells (3×10^6/50 μL/spot) were subcutaneously injected into the both sides of lower back of mice using a 27-gauge needle. […]
Immunohistochemical staining was performed as described previously (Hao Y, et al., “Enforced expression of miR-101 inhibits prostate cancer cell growth by modulating the COX-2 pathway in vivo,” Cancer Prev Res (Phila), 2011; 4: 1073-1083). […] For the quantification, ten high-magnification (40×) fields were randomly selected from each slide of tumors and the positive cells were counted. The protein expression was expressed as the average number of positive cells per high magnification field.

A further series deals with survivin. Briefly: Western blot of survivin expression in MDA and MCF-7 cells. Conditions: Sal-B 50 μM and 100 μM, 24 hours. In kind it is cell-based, human. As for the experimental part: (§3) The immunohistochemical results were consistent with those from Western blotting (FIG. 7, panel A). Western blot analysis was used to determine the expression of apoptosis-related proteins Bcl-XL, survivin, caspase-3 and caspase-8 (FIG. 7, panel A). β-actin was used as an internal control for Western blotting. The MCD-7 and MDA cells were treated with Sal-B (50 μM and 100 μM) and doxorubicin (0.1 μM and 1 μM), respectively, for 24 hours. Proteins were extracted from the cells with RIPA lysis buffer (Santa Cruz Biotechnology, Santa Cruz, CA) and the protein concentrations were quantified with Bio-Rad protein quantification kit. Whole-cell proteins were separated on 8% SDS-polyacrylamide gel, transferred to the polyvinylidene difluoride membrane (Bio-Rad), and then probed with the indicated primary antibodies overnight at 4° C. Washed blots were then incubated with horseradish peroxidase-conjugated anti-rabbit, anti-mouse, or anti-goat antibody (Santa Cruz Biotechnology), respectively, for one hour at room temperature. Blots were developed and visualized with ECL detection system (Bio-Rad).
(A western blot detects proteins with antibodies after separation by electrophoresis.)

Another series has as its system GM3 synthase. In words: Western blot of GM3 synthase expression in MDA and MCF-7 cells. Type of series: cell-based, human. As for the experimental part:
as §3
To understand the mechanism underlying increased ceramide accumulation, the expression levels of GCS and GM3 synthase were measured by Western blot analysis in MDA and MCF-7 cells treated by various concentrations of Sal-B (FIG. 8). […]

The subject of series [3] is ceramides. Briefly: Ceramide levels in MDA cells by flow cytometry. In kind it is cell-based, human. Conditions: Sal-B 50 μM, 24 hours. The protocol: Ceramide levels were further analyzed with flow cytometry, according to the method described above, through comparison of Sal-B treated and untreated MDA cells. MDA cells were treated with 50 μM and 100 μM of Sal-B, respectively, for 24 hours and ceramide levels were then analyzed by flow cytometry.
Similarly, immunohistochemistry was carried out, as generally described above, to evaluate the expression of ceramides in MDA tumor xenografts (FIG. 9, panel C). The fixed cells were sequentially incubated with anti-ceramide primary antibody (1:100) for 2 hours and PE-labeled secondary antibody (1:200) for 30 minutes, and the ceramide positive cells were counted (FIG. 9, panel B).

Series [4] has as its system ceramides. In words: Immunohistochemistry of ceramides in MDA tumor xenografts. In kind it is in vivo, athymic nude mice. Conditions: Sal-B 80 mg/kg three times per week; untreated control 2.3±0.7; P<0.05. The protocol: as §2
Immunohistochemical staining was performed as described previously (Hao Y, et al., “Enforced expression of miR-101 inhibits prostate cancer cell growth by modulating the COX-2 pathway in vivo,” Cancer Prev Res (Phila), 2011; 4: 1073-1083). […] For the quantification, ten high-magnification (40×) fields were randomly selected from each slide of tumors and the positive cells were counted. The protein expression was expressed as the average number of positive cells per high magnification field. […]

Another series has as its system p-ERK. In words: Western blot of p-ERK expression in MCF-7 and MDA cells. Type of series: cell-based, human. Conditions: different concentrations of Sal-B, 24 hours. The protocol:
as §3
Because phospho-p44/42 extracellular signal-regulated kinases (p-ERK) is a key enzyme in the MAPK signal pathway, the expression of p-ERK was also investigated in MCF-7 and MDA cells following exposure to different concentrations of Sal-B for 24 hours.

`O=C(/C=C/c1ccc(O)c2c1[C@H](C(=O)O[C@H](Cc1ccc(O)c(O)c1)C(=O)O)[C@@H](c1ccc(O)c(O)c1)O2)O[C@H](Cc1ccc(O)c(O)c1)C(=O)O` [Sal-B, Salvianolic acid B]: the “colony formation capability relative to control cells” value with MDA-MB-231 cells (Sal-B 1 μM for 24 hours) is on record as “approximately 69%”. In addition, the colony formation capability entry in the series on MDA-MB-231 cells (Sal-B 100 μM for 24 hours) is listed as “complete inhibition”. The compound also had an average tumor weight in the series on MDA tumor xenografts of 0.26 ± 0.06 g. The side effects result in series [1] (Sal-B 80 mg/kg three times per week) is recorded as “no obvious side effects”. For the same compound, the “side effects at higher dosage” value in series [1] (Sal-B dosage higher than 80 mg/kg three times per week) is reported as “weight loss in some mice”. The “PCNA levels in tumor xenografts” value in series [2] is on record as “higher in untreated MDA tumor xenografts”. The survivin protein expression entry with survivin (MCF-7 cells) and in the series on survivin (MDA cells) was “downregulated” in each case. In addition, the “expression of GM3 synthase (normalized to β-actin)” value was “significantly diminished” in the series with GM3 synthase (MCF-7 cells, Sal-B 100 μM); “significantly diminished” in the series with GM3 synthase (MDA cells, Sal-B at both 50 μM and 100 μM). Further, in the series with ceramides [3], the “ceramide level by flow cytometry” value is “sufficient to enhance the ceramide level”. The “ceramide levels in tumor xenografts (ceramide positive cells counted)” value with ceramides [4] turned out to be 9.6±2.4. Moreover, the “p-ERK expression (normalized to β-actin)” value with p-ERK (MCF-7 cells) and with p-ERK (MDA cells) was “down-regulated” each time.
